Results from patent US8343458B2, “Probes for in vivo targeting of active cysteine proteases” (The Board of Trustees of the Leland Stanford Junior …, priority 2008, dated 2013).

Tested on: thymus tissue undergoing apoptosis
Test: Tissue uptake in dexamethasone apoptosis mouse model
Assay type: in vivo
Details: dexamethasone-treated mice, 125I-labeled probe, radioactivity over time
Protocol: Graphs are for thymus, blood, muscle and liver.
Distribution studies were done in mice that were treated with dexamethazone (IP injection) to induce apoptosis in the thymus. This animal model is further described, e.g., in Casteels et al. “Sex Difference in Resistance to Dexamethasone-Induced Apoptosis in NOD Mice,” Diabetes, 47:1033-1037, 1998. AB53 was labeled with ^125I at the nitrophenol capping group.
Referring now to FIG. 6, data for the uptake of the probe in different tissues was obtained. Presented there are four graphs, one for thymus (FIG. 6A), one for blood (FIG. 6B) one for muscle (FIG. 6C) and one for liver (FIG. 6D), showing data from the in vivo uptake studies with ^125I-AB53. Graphs plot radioactivity as percent of initial dose/g of tissue from ^125I measured in different organs over time.

Cc1cccc(C)c1C(=O)OCC(=O)[C@H](CC(=O)O)NC(=O)C1CCCN1C(=O)[C@H](Cc1ccc(-c2ccccc2)cc1)NC(=O)Cc1ccc([N+](=O)[O-])c(O)c1 (stereo partly shown) [AB53]
Probe uptake in thymus: accumulates specifically in the thymus tissue that is undergoing apoptosis
